Legend:
AncCDT-1 = assay: isothermal titration calorimetry; assay type: binding, synthetic construct; details: 20 mM Na2HPO4, 150 mM NaCl, pH 7.4, 25 °C; on-column refolded protein
Ws0279 = Ws0279 (Wolinella succinogenes, UniProt Q7MAG0); assay: biochemical; details: read-out: ΔTM
Pu1068 = target: T1, Pu1068 (Candidatus Pelagibacter communis, UniProt Q4FLR5); assay: intrinsic tryptophan fluorescence titration; assay type: binding
T1 sequence (Q4FLR5 19-255): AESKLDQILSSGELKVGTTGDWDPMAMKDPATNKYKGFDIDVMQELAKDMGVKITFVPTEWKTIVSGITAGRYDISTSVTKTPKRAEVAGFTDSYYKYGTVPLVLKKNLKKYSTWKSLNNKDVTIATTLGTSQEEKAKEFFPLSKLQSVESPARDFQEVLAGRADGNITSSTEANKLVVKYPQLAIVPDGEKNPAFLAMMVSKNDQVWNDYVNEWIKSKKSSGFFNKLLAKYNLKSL

Ws0279, sequence (Q7MAG0 24-258): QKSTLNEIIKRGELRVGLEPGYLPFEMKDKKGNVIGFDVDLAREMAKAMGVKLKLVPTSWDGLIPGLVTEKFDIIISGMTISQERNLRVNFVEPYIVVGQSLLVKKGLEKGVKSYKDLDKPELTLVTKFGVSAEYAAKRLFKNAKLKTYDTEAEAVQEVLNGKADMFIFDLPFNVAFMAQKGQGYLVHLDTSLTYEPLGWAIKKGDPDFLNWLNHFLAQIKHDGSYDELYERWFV

Kd (Pu1068) [µM] | SMILES | Kd (AncCDT-1) [µM] | ΔTm at 10000 µM (Ws0279) [°C]
– | N=C(N)NCCC[C@H](N)C(=O)O [L-arginine] | 0.32 | –
– | NCCCC[C@H](N)C(=O)O [L-lysine] | 6.7 | 7.2
– | N[C@@H](Cc1cnc[nH]1)C(=O)O [L-histidine] | 2.3 | –
530 | C[N+]1(CCCS(=O)(=O)[O-])CCCCC1 [NDSB-221, 3-(1-methylpiperidinium-1-yl)propane-1-sulfonate] | – | –
– | NCCC[C@H](N)C(=O)O [L-ornithine] | 1.2 | –
